Where no end group is shown, it is not given here.
System: NASH model mice (MC4R-KO mice fed a high-fat diet)
Experiment: Body weight and liver weight of NASH model mice
Assay type: in vivo, mouse
Conditions: 5 mg/kg tail vein injection twice a week for four weeks, t-test
Description: Melanocortin-4 receptor knockout mice (hereinafter also referred to as “MC4R-KO mice,” genetic background: C57BL/6J) were provided by Dr. Joel K Elmquist of University of Texas, Medical Center.
Subsequently, NASH was induced in the mice by feeding a high-fat diet to the MC4R-KO mice, as detailed in the below reference. […] Later, the diet was switched from the normal diet to a high-fat diet (HFD) and the high-fat diet was fed for 20 weeks. Thereby, NASH was developed in the mice. • Itoh M, Suganami T, Nakagawa N, et al. Melanocortin 4 receptor-deficient mice as a novel mouse model of nonalcoholic steatohepatitis. Am J Pathol 2011; 179: 2454-63.
Here, CE-2 (manufactured by CLEA Japan, Inc.) was used as the normal diet, and Western Diet (manufactured by EPS EKISHIN Co., Ltd., containing 0.21% of cholesterol+41% kcal of milk fat) was used as the high-fat diet.
Experiments were carried out by dividing the mice into two groups of an HMGB1 peptide administration group (HMGB1 administration group) and a control group (normal saline; NS administration; CTRL administration group). […]
The mice were euthanized twenty weeks after initiating the high-fat diet, and arterial blood was collected from the heart of the mice. […] In all of the following statistical analyses, significance was calculated by a t-test.

MGKGDPKKPRGKMSSYAFFVQTCREEHKKKHPDASVNFSEFSKK [HMGB1 peptide]
change of the body weight (from initiating administration until completion of breeding, vs control group): significant differences were not observed | body weight (twenty weeks after initiating high-fat diet, vs control group (normal saline)): significant differences were not observed

Reference: patent US20240299496A1, “DRUG FOR TREATING FATTY LIVER AND NONALCOHOLIC STEATOHEPATITIS” (Osaka University, priority 2021, published 2024)
